Results from paper PMC4084622 (Journal of Medicinal Chemistry, 2014).
pIC50: −log10 of the molar value. ≈ marks a conversion by molar mass, not a printed value. Where two headings read alike, the source gives them in different places.

Key:
B. subtilis = assay: microbe, parasite or virus in culture; format: cell-based; details: Bacillus subtilis; for IC50: read-out: Bs IC50; for pIC50: read-out: Bs IC50 (in parentheses)
S. cerevisiae = assay: microbe, parasite or virus in culture; format: cell-based, Saccharomyces cerevisiae; details: for IC50 / pIC50: Saccharomyces cerevisiae; for IC50: read-out: Sc IC50; for pIC50: read-out: Sc IC50 (in parentheses)
E. coli = assay: microbe, parasite or virus in culture; format: cell-based; details: Escherichia coli; for IC50: read-out: Ec IC50; for pIC50: read-out: Ec IC50 (in parentheses)
M. tuberculosis = assay: microbe, parasite or virus in culture; format: cell-based, Mycobacterium tuberculosis; details: Mycobacterium tuberculosis, read-out: Mt MIC
MCF-7 = assay: cells; format: cell-based; details: Homo sapiens, MCF7, read-out: MCF-7 IC50
[1] = system: S. aureus (MRSA USA300 strain); assay: microbe, parasite or virus in culture; format: cell-based; details: Staphylococcus aureus, MRSA|USA300, read-out: Sa MIC, MRSA USA300 strain
C. albicans = assay: microbe, parasite or virus in culture; format: cell-based; details: Candida albicans; for IC50: read-out: Ca IC50; for pIC50: read-out: Ca IC50 (in parentheses)
M. smegmatis cells, ΔpH = format: cell-based, Mycobacterium smegmatis

Structure (SMILES)	IC50 (B. subtilis) [mg/L]	IC50 (S. cerevisiae) [mg/L]	IC50 (E. coli) [mg/L]	MIC (M. tuberculosis) [mg/L]	IC50 (MCF-7) [mg/L]	MIC [1] [mg/L]	IC50 (C. albicans) [mg/L]	pIC50 (B. subtilis)	pIC50 (S. cerevisiae)	pIC50 (E. coli)	pIC50 (C. albicans)	Sc IC50 (S. cerevisiae) [mg/L]	effect on pH gradient (ΔpH) (M. smegmatis cells, ΔpH)
CC(C)=CCC/C(C)=C/C[N+](C)(C)CCOC1C2CC3CC(C2)CC1C3.[I-] (centres unmarked) [compound 7]	4.2	15	37	0.78	3.2	8	18						
CC(C)=CCC/C(C)=C/CNC(=O)COC1C2CC3CC(C2)CC1C3 (centres unmarked) [compound 8]	> 69	> 69	> 345	0.78 (≈ 2.26 µM)	12 (≈ 34.7 µM)	> 120	> 69	< 3.70	< 3.70	< 3.00	< 3.70		
CC(C)=CCC/C(C)=C/COCC(=O)NC1C2CC3CC(C2)CC1C3 (centres unmarked) [compound 9]	17	> 69	> 345	12 (≈ 34.7 µM)	9.3 (≈ 26.9 µM)	> 120	> 69		< 3.70	< 3.00	< 3.70		
CC(C)=CCC/C(C)=C/CNCCOC(C)(C)C [compound 10]	> 50	44	> 126	6.2 (≈ 24.5 µM)	45 (≈ 178 µM)	> 16	> 50	< 3.70		< 3.30	< 3.70		
CC(C)=CCC/C(C)=C/CNCCOc1ccccc1 [compound 11]	17	3	60	6.2 (≈ 22.7 µM)	6.3 (≈ 23 µM)	32 (≈ 117 µM)	20						
CC(C)=CCC/C(C)=C/CNCCOc1cccc2ccccc12 [compound 12]	2.4	3.7	15	6.2 (≈ 19.2 µM)	7.1 (≈ 21.9 µM)	~8 (≈ 24.7 µM)	12						
CC(C)=CCC/C(C)=C/CNCCO[C@@H]1C[C@@H]2CC[C@@]1(C)C2(C)C [compound 13]	1.8	1 to 3	12		1.3 (≈ 3.9 µM)	~8 (≈ 24 µM)	6.3					0.89	collapsed
CO[C@@H]1C[C@@H](C[C@H]2CC[C@H](C)[C@H]([C@@H](C)C(=O)O)O2)O[C@]2(O[C@](C)([C@H]3CC[C@@](C)([C@@H]4O[C@@H]([C@H]5O[C@@](O)(CO)[C@H](C)C[C@@H]5C)C[C@@H]4C)O3)C[C@H]2C)[C@@H]1C [nigericin]													collapsed
CC(C)[C@@H]1NC(=O)[C@H](C)OC(=O)[C@@H](C(C)C)NC(=O)[C@@H](C(C)C)OC(=O)[C@H](C(C)C)NC(=O)[C@H](C)OC(=O)[C@@H](C(C)C)NC(=O)[C@@H](C(C)C)OC(=O)[C@H](C(C)C)NC(=O)[C@H](C)OC(=O)[C@@H](C(C)C)NC(=O)[C@@H](C(C)C)OC1=O [valinomycin]													no effect
